# Results from ChEMBL document CHEMBL1142759, “Synthesis of some diguanidino 1-methyl-2,5-diaryl-1H-pyrroles as antifungal agents” (2005).
# Tested on: Candida parapsilosis
# Assay: Minimum inhibitory concentration against Candida parapsilosis ATCC 22019 evaluated by in vitro agar diffusion and micro-broth dilution assay
# Format: functional
# Conditions: Lodderomyces parapsilosis
row,SMILES,MIC [mg/L]
1,Cn1c(-c2cc(F)c(NC(=N)N)cc2F)ccc1-c1cc(F)c(NC(=N)N)cc1F,> 16
2,COc1cc(NC(=N)N)ccc1-c1ccc(-c2ccc(NC(=N)N)cc2OC)n1C,16
3,Cn1c(-c2ccc(N=C(N)N)c(C(F)(F)F)c2)ccc1-c1ccc(N=C(N)N)c(C(F)(F)F)c1,16
4,Cn1c(-c2ccc(NC(=N)N)cc2)ccc1-c1ccc(NC(=N)N)cc1,> 16
5,Cc1cc(NC(=N)N)ccc1-c1ccc(-c2ccc(NC(=N)N)cc2C)n1C,2
6,Cn1c(-c2ccc(NC(=N)N)cc2Cl)ccc1-c1ccc(NC(=N)N)cc1Cl,16
7,OC(Cn1cncn1)(Cn1cncn1)c1ccc(F)cc1F [FLUCONAZOLE],8
8,CCC(C)n1ncn(-c2ccc(N3CCN(c4ccc(OC[C@H]5CO[C@](Cn6cncn6)(c6ccc(Cl)cc6Cl)O5)cc4)CC3)cc2)c1=O (some centres undefined) [ITRACONAZOLE],0.25

# Tested on: Candida albicans
# Assay: Minimum inhibitory concentration against Candida albicans A261 evaluated by in vitro agar diffusion and micro-broth dilution assay
# Format: functional
# Conditions: not given
row,SMILES,MIC [mg/L]
1,Cn1c(-c2cc(F)c(NC(=N)N)cc2F)ccc1-c1cc(F)c(NC(=N)N)cc1F,> 16
2,COc1cc(NC(=N)N)ccc1-c1ccc(-c2ccc(NC(=N)N)cc2OC)n1C,16
3,Cn1c(-c2ccc(N=C(N)N)c(C(F)(F)F)c2)ccc1-c1ccc(N=C(N)N)c(C(F)(F)F)c1,16
4,Cn1c(-c2ccc(NC(=N)N)cc2)ccc1-c1ccc(NC(=N)N)cc1,> 16
5,Cc1cc(NC(=N)N)ccc1-c1ccc(-c2ccc(NC(=N)N)cc2C)n1C,2
6,Cn1c(-c2ccc(NC(=N)N)cc2Cl)ccc1-c1ccc(NC(=N)N)cc1Cl,8
7,OC(Cn1cncn1)(Cn1cncn1)c1ccc(F)cc1F [FLUCONAZOLE],0.25
8,CCC(C)n1ncn(-c2ccc(N3CCN(c4ccc(OC[C@H]5CO[C@](Cn6cncn6)(c6ccc(Cl)cc6Cl)O5)cc4)CC3)cc2)c1=O (some centres undefined) [ITRACONAZOLE],< 0.03

# Tested on: Candida
# Assay: Minimum inhibitory concentration against Candida krusei ATCC 6528 evaluated by in vitro agar diffusion and micro-broth dilution assay
# Format: functional, Candida kruisii
# Conditions: not given
row,SMILES,MIC [mg/L]
1,Cn1c(-c2cc(F)c(NC(=N)N)cc2F)ccc1-c1cc(F)c(NC(=N)N)cc1F,> 16
2,COc1cc(NC(=N)N)ccc1-c1ccc(-c2ccc(NC(=N)N)cc2OC)n1C,16
3,Cn1c(-c2ccc(N=C(N)N)c(C(F)(F)F)c2)ccc1-c1ccc(N=C(N)N)c(C(F)(F)F)c1,16
4,Cn1c(-c2ccc(NC(=N)N)cc2)ccc1-c1ccc(NC(=N)N)cc1,> 16
5,Cc1cc(NC(=N)N)ccc1-c1ccc(-c2ccc(NC(=N)N)cc2C)n1C,4
6,Cn1c(-c2ccc(NC(=N)N)cc2Cl)ccc1-c1ccc(NC(=N)N)cc1Cl,16
7,OC(Cn1cncn1)(Cn1cncn1)c1ccc(F)cc1F [FLUCONAZOLE],> 8
8,CCC(C)n1ncn(-c2ccc(N3CCN(c4ccc(OC[C@H]5CO[C@](Cn6cncn6)(c6ccc(Cl)cc6Cl)O5)cc4)CC3)cc2)c1=O (some centres undefined) [ITRACONAZOLE],0.25

# Tested on: Candida albicans
# Assay: Minimum inhibitory concentration against Candida albicans V-01-191 evaluated by in vitro agar diffusion and microbroth dilution assay
# Format: functional
# Conditions: not given
row,SMILES,MIC [mg/L]
1,Cn1c(-c2cc(F)c(NC(=N)N)cc2F)ccc1-c1cc(F)c(NC(=N)N)cc1F,> 16
2,COc1cc(NC(=N)N)ccc1-c1ccc(-c2ccc(NC(=N)N)cc2OC)n1C,16
3,Cn1c(-c2ccc(N=C(N)N)c(C(F)(F)F)c2)ccc1-c1ccc(N=C(N)N)c(C(F)(F)F)c1,16
4,Cn1c(-c2ccc(NC(=N)N)cc2)ccc1-c1ccc(NC(=N)N)cc1,> 16
5,Cc1cc(NC(=N)N)ccc1-c1ccc(-c2ccc(NC(=N)N)cc2C)n1C,2
6,Cn1c(-c2ccc(NC(=N)N)cc2Cl)ccc1-c1ccc(NC(=N)N)cc1Cl,8
7,OC(Cn1cncn1)(Cn1cncn1)c1ccc(F)cc1F [FLUCONAZOLE],6
8,CCC(C)n1ncn(-c2ccc(N3CCN(c4ccc(OC[C@H]5CO[C@](Cn6cncn6)(c6ccc(Cl)cc6Cl)O5)cc4)CC3)cc2)c1=O (some centres undefined) [ITRACONAZOLE],0.25

# Tested on: Candida
# Assay: Minimum inhibitory concentration against Candida krusei 1766-1 evaluated by in vitro agar diffusion and micro-broth dilution assay
# Format: functional, Candida kruisii
# Conditions: not given
row,SMILES,MIC [mg/L]
1,Cn1c(-c2cc(F)c(NC(=N)N)cc2F)ccc1-c1cc(F)c(NC(=N)N)cc1F,> 16
2,COc1cc(NC(=N)N)ccc1-c1ccc(-c2ccc(NC(=N)N)cc2OC)n1C,16
3,Cn1c(-c2ccc(N=C(N)N)c(C(F)(F)F)c2)ccc1-c1ccc(N=C(N)N)c(C(F)(F)F)c1,16
4,Cn1c(-c2ccc(NC(=N)N)cc2)ccc1-c1ccc(NC(=N)N)cc1,> 16
5,Cc1cc(NC(=N)N)ccc1-c1ccc(-c2ccc(NC(=N)N)cc2C)n1C,8
6,Cn1c(-c2ccc(NC(=N)N)cc2Cl)ccc1-c1ccc(NC(=N)N)cc1Cl,16
7,OC(Cn1cncn1)(Cn1cncn1)c1ccc(F)cc1F [FLUCONAZOLE],32
8,CCC(C)n1ncn(-c2ccc(N3CCN(c4ccc(OC[C@H]5CO[C@](Cn6cncn6)(c6ccc(Cl)cc6Cl)O5)cc4)CC3)cc2)c1=O (some centres undefined) [ITRACONAZOLE],< 0.03

# Tested on: Aspergillus fumigatus
# Assay: Minimum inhibitory concentration against Aspergillus fumigatus LSI-11 evaluated by in vitro agar diffusion and microbroth dilution assay
# Format: functional
# Conditions: not given
row,SMILES,MIC [mg/L]
1,Cn1c(-c2cc(F)c(NC(=N)N)cc2F)ccc1-c1cc(F)c(NC(=N)N)cc1F,> 16
2,COc1cc(NC(=N)N)ccc1-c1ccc(-c2ccc(NC(=N)N)cc2OC)n1C,16
3,Cn1c(-c2ccc(N=C(N)N)c(C(F)(F)F)c2)ccc1-c1ccc(N=C(N)N)c(C(F)(F)F)c1,16
4,Cn1c(-c2ccc(NC(=N)N)cc2)ccc1-c1ccc(NC(=N)N)cc1,> 16
5,Cc1cc(NC(=N)N)ccc1-c1ccc(-c2ccc(NC(=N)N)cc2C)n1C,16
6,Cn1c(-c2ccc(NC(=N)N)cc2Cl)ccc1-c1ccc(NC(=N)N)cc1Cl,> 16
7,OC(Cn1cncn1)(Cn1cncn1)c1ccc(F)cc1F [FLUCONAZOLE],≥ 64
8,CCC(C)n1ncn(-c2ccc(N3CCN(c4ccc(OC[C@H]5CO[C@](Cn6cncn6)(c6ccc(Cl)cc6Cl)O5)cc4)CC3)cc2)c1=O (some centres undefined) [ITRACONAZOLE],0.12

# Tested on: Candida tropicalis
# Assay: Minimum inhibitory concentration against Candida tropicalis ATCC750 evaluated by in vitro agar diffusion and microbroth dilution assay
# Format: functional
# Conditions: not given
row,SMILES,MIC [mg/L]
1,Cn1c(-c2cc(F)c(NC(=N)N)cc2F)ccc1-c1cc(F)c(NC(=N)N)cc1F,> 16
2,COc1cc(NC(=N)N)ccc1-c1ccc(-c2ccc(NC(=N)N)cc2OC)n1C,16
3,Cn1c(-c2ccc(N=C(N)N)c(C(F)(F)F)c2)ccc1-c1ccc(N=C(N)N)c(C(F)(F)F)c1,4
4,Cn1c(-c2ccc(NC(=N)N)cc2)ccc1-c1ccc(NC(=N)N)cc1,> 16
5,Cc1cc(NC(=N)N)ccc1-c1ccc(-c2ccc(NC(=N)N)cc2C)n1C,1
6,Cn1c(-c2ccc(NC(=N)N)cc2Cl)ccc1-c1ccc(NC(=N)N)cc1Cl,4
7,OC(Cn1cncn1)(Cn1cncn1)c1ccc(F)cc1F [FLUCONAZOLE],8
8,CCC(C)n1ncn(-c2ccc(N3CCN(c4ccc(OC[C@H]5CO[C@](Cn6cncn6)(c6ccc(Cl)cc6Cl)O5)cc4)CC3)cc2)c1=O (some centres undefined) [ITRACONAZOLE],0.12

# Tested on: Nakaseomyces glabratus
# Assay: Minimum inhibitory concentration against Candida glabrata ATCC 90030 evaluated by in vitro agar diffusion and microbroth dilution assay
# Format: functional
# Conditions: not given
row,SMILES,MIC [mg/L]
1,Cn1c(-c2cc(F)c(NC(=N)N)cc2F)ccc1-c1cc(F)c(NC(=N)N)cc1F,> 16
2,COc1cc(NC(=N)N)ccc1-c1ccc(-c2ccc(NC(=N)N)cc2OC)n1C,16
3,Cn1c(-c2ccc(N=C(N)N)c(C(F)(F)F)c2)ccc1-c1ccc(N=C(N)N)c(C(F)(F)F)c1,16
4,Cn1c(-c2ccc(NC(=N)N)cc2)ccc1-c1ccc(NC(=N)N)cc1,> 16
5,Cc1cc(NC(=N)N)ccc1-c1ccc(-c2ccc(NC(=N)N)cc2C)n1C,2
6,Cn1c(-c2ccc(NC(=N)N)cc2Cl)ccc1-c1ccc(NC(=N)N)cc1Cl,16
7,OC(Cn1cncn1)(Cn1cncn1)c1ccc(F)cc1F [FLUCONAZOLE],> 8
8,CCC(C)n1ncn(-c2ccc(N3CCN(c4ccc(OC[C@H]5CO[C@](Cn6cncn6)(c6ccc(Cl)cc6Cl)O5)cc4)CC3)cc2)c1=O (some centres undefined) [ITRACONAZOLE],0.25
